How the values were obtained:
[1] = water
[2] = test system: COLO-205 colon cancer cells; assay: NCI human tumor cell line panel growth inhibition; assay type: cell-based; conditions: Homo sapiens; COLO-205, colon cancer; read-out: Log10 GI50 (converted)
U251 CNS cancer cells = assay: NCI human tumor cell line panel growth inhibition; assay type: cell-based; conditions: Homo sapiens, U-251, read-out: Log10 GI50 (converted)
[3] = test system: T-47D breast cancer cells; assay: NCI human tumor cell line panel growth inhibition; assay type: cell-based; conditions: T47D, read-out: Log10 GI50 (converted)
Method: The assay was carried out in 96-well microtiter plates. The MTT assay is based on the production of a dark blue formazan product by dehydrogenase in the mitochondria of live tumor cells after exposure to drug for 6 days [M. C. […] The SRB assay is based on the binding of the anionic group to the basic amino acid residues of cellular proteins after exposure of tumor cells to drug for 2 days [P. Skehan, R. Storeng, D. Scudiero, A. Monks, J. McMahon, D. Vistica, J. T. Warren, H. Bohesch, S. Kenney and M. R. Boyd, J. Nat.

HOP-62 lung cancer cells = assay: NCI human tumor cell line panel growth inhibition; assay type: cell-based; conditions: Homo sapiens, read-out: Log10 GI50 (converted)
ACHN renal cancer cells = assay: NCI human tumor cell line panel growth inhibition; assay type: cell-based; conditions: read-out: Log10 GI50 (converted)
UO-31 renal cancer cells = assay: NCI human tumor cell line panel growth inhibition; assay type: cell-based; conditions: read-out: Log10 GI50 (converted)
HT29 colon cancer cells = assay: NCI human tumor cell line panel growth inhibition; assay type: cell-based; conditions: Homo sapiens, HT-29, read-out: Log10 GI50 (converted)
[4] = test system: RXF-393 renal cancer cells; assay: NCI human tumor cell line panel growth inhibition; assay type: cell-based; conditions: Homo sapiens, read-out: Log10 GI50 (converted)
SF-295 CNS cancer cells = assay: NCI human tumor cell line panel growth inhibition; assay type: cell-based; conditions: read-out: Log10 GI50 (converted)
[5] = test system: NCI-H460 lung cancer cells; assay: NCI human tumor cell line panel growth inhibition; assay type: cell-based; conditions: Homo sapiens, read-out: Log10 GI50 (converted)
[6] = test system: HCT-15 colon cancer cells; assay: NCI human tumor cell line panel growth inhibition; assay type: cell-based; conditions: Homo sapiens, read-out: Log10 GI50 (converted)
786-0 renal cancer cells = assay: NCI human tumor cell line panel growth inhibition; assay type: cell-based; conditions: read-out: Log10 GI50 (converted)
[7] = test system: HCC-2998 colon cancer cells; assay: NCI human tumor cell line panel growth inhibition; assay type: cell-based; conditions: Homo sapiens, read-out: Log10 GI50 (converted)
[8] = test system: OVCAR-8 ovarian cancer cells; assay: NCI human tumor cell line panel growth inhibition; assay type: cell-based; conditions: Homo sapiens, read-out: Log10 GI50 (converted)
Method: (§1) The first screen measures the cytotoxicity against a panel of sixty different human tumor cell lines. This assay provides data regarding the general cytotoxicity of an individual compound.
(§2) The length of a bar is indicative of differential cytotoxicity against a specific type of tumor cells or tumor panels.
(§3) The antitumor cytotoxicity of the thiophene compounds tested in the first two in vitro assays was measured by a microculture assay using either 3-(4,5-dimethylthiazol-2-yl)-2,5-diphenyltetrazolium bromide (MTT) or sulforhodamine B (SRB). [M. R. Boyd in "Principles and Practices of Oncology," V. T. DeVita, Jr., S. Hellman and S. A. Rosenberg (Eds.), Vol. 3, PPO Updates, Number 10, 1989.] This assay has an advantage over in vivo assay in that results are obtained within a week as opposed to several months. The assay was carried out in 96-well microtiter plates. The MTT assay is based on the production of a dark blue formazan product by dehydrogenase in the mitochondria of live tumor cells after exposure to drug for 6 days [M. C. Alley, D. A. Scudiero, A. Monks, M. L. Hursey, M. J. Czerwinski, D. L. Fine, B. J. Abbott, J. G. Mayo, R. H. Shoemaker and M. R. Boyd, Cancer Res., 48, 589, 1988.] Thus, only live cells are stained and can be measured at 570 nm. The SRB assay is based on the binding of the anionic group to the basic amino acid residues of cellular proteins after exposure of tumor cells to drug for 2 days [P. Skehan, R. Storeng, D. Scudiero, A. Monks, J. McMahon, D. Vistica, J. T. Warren, H. Bohesch, S. Kenney and M. R. Boyd, J. Nat. Cancer Inst., 82, 1107, 1990.] Thus, the total protein (viability) can be measured at 564 nm.

[9] = test system: SW-620 colon cancer cells; assay: NCI human tumor cell line panel growth inhibition; assay type: cell-based; conditions: Homo sapiens, read-out: Log10 GI50 (converted)
Method: as §1, §2, §3

SN12C renal cancer cells = assay: NCI human tumor cell line panel growth inhibition; assay type: cell-based; conditions: read-out: Log10 GI50 (converted)
[10] = test system: NCI-H226 lung cancer cells; assay: NCI human tumor cell line panel growth inhibition; assay type: cell-based; conditions: Homo sapiens, read-out: Log10 GI50 (converted)
MALME-3M melanoma cells = assay: NCI human tumor cell line panel growth inhibition; assay type: cell-based; conditions: read-out: Log10 GI50 (converted)
[11] = test system: NCI-H23 lung cancer cells; assay: NCI human tumor cell line panel growth inhibition; assay type: cell-based; conditions: read-out: Log10 GI50 (converted)
M-14 melanoma cells = assay: NCI human tumor cell line panel growth inhibition; assay type: cell-based; conditions: M14, read-out: Log10 GI50 (converted)
[12] = test system: IGROV-1 ovarian cancer cells; assay: NCI human tumor cell line panel growth inhibition; assay type: cell-based; conditions: Homo sapiens, read-out: Log10 GI50 (converted)
KM12 colon cancer cells = assay: NCI human tumor cell line panel growth inhibition; assay type: cell-based; conditions: Homo sapiens, read-out: Log10 GI50 (converted)
Text: (§4) The cytotoxic activity of the present polythiophene compounds have been measured utilizing three different assays or screens. The first screen measures the cytotoxicity against a panel of sixty different human tumor cell lines. This assay provides data regarding the general cytotoxicity of an individual compound. In particular this type of assay is useful in identifying compounds which have enhanced cytotoxic activity against slow growing tumors as compared to faster growing tumor cells such as leukemia tumor cell lines. The identification of such compounds is critical since previously identified antitumor agents have low cytotoxic activity against slower growing tumors. […] The specificity of a cytotoxic compound for tumor cell lines relative to normal cells is an important characteristic of an effective antitumor agent.
as §2, §3

[13] = test system: DU-145 prostate cancer cells; assay: NCI human tumor cell line panel growth inhibition; assay type: cell-based; conditions: read-out: Log10 GI50 (converted)
Text: as §4, §2, §3

[14] = test system: MCF7/ADR-RES breast cancer cells; assay: NCI human tumor cell line panel growth inhibition; assay type: cell-based; conditions: read-out: Log10 GI50 (converted)
Text: as §4, §2, §3

MCF7 breast cancer cells = assay: NCI human tumor cell line panel growth inhibition; assay type: cell-based; conditions: read-out: Log10 GI50 (converted)
Text: as §4, §2, §3

[15] = test system: MDA-N breast cancer cells; assay: NCI human tumor cell line panel growth inhibition; assay type: cell-based; conditions: read-out: Log10 GI50 (converted)
Text: as §4, §2, §3

SK-MEL-5 melanoma cells = assay: NCI human tumor cell line panel growth inhibition; assay type: cell-based; conditions: read-out: Log10 GI50 (converted)
Text: as §4, §2, §3

[16] = test system: HS 578T breast cancer cells; assay: NCI human tumor cell line panel growth inhibition; assay type: cell-based; conditions: read-out: Log10 GI50 (converted)
Text: as §4, §2, §3

[17] = test system: PC-3 prostate cancer cells; assay: NCI human tumor cell line panel growth inhibition; assay type: cell-based; conditions: read-out: Log10 GI50 (converted)
Text: as §4, §2, §3

SK-MEL-28 melanoma cells = assay: NCI human tumor cell line panel growth inhibition; assay type: cell-based; conditions: read-out: Log10 GI50 (converted)
Text: as §4, §2, §3

[18] = test system: BT-549 breast cancer cells; assay: NCI human tumor cell line panel growth inhibition; assay type: cell-based; conditions: read-out: Log10 GI50 (converted)
Text: as §4, §2, §3

[19] = test system: MDA-MB-435 breast cancer cells; assay: NCI human tumor cell line panel growth inhibition; assay type: cell-based; conditions: read-out: Log10 GI50 (converted)
Text: as §4, §2, §3

TK-10 renal cancer cells = assay: NCI human tumor cell line panel growth inhibition; assay type: cell-based; conditions: Homo sapiens, read-out: Log10 GI50 (converted)
[20] = test system: NCI-H522 lung cancer cells; assay: NCI human tumor cell line panel growth inhibition; assay type: cell-based; conditions: read-out: Log10 GI50 (converted)

Which “aminomethylterthiophene dissolved by 1 mL of H2O (as cyclodextrin complex)” value [1] does the source give for NCc1ccc(-c2ccc(-c3cccs3)s2)s1 [NSC Code 652866, aminomethylterthiophene] here?
Its value is “up to 77 mg”.

What does the source list for OCc1cc(-c2ccc(-c3cccs3)s2)sc1CO?
GI50 [2]: 5.89 µM; GI50 (U251 CNS cancer cells): 69.2 µM; GI50 [3]: 427 nM; GI50 (HOP-62 lung cancer cells): 20 µM; GI50 (ACHN renal cancer cells): 56.2 µM; GI50 (UO-31 renal cancer cells): 64.6 µM; GI50 (HT29 colon cancer cells): 18.6 µM; GI50 [4]: 8.71 µM; GI50 (SF-295 CNS cancer cells): 33.9 µM; GI50 [5]: 5.62 µM; GI50 [6]: 28.2 µM; GI50 (786-0 renal cancer cells): 52.5 µM; GI50 [7]: 316 nM; GI50 [8]: 50.1 µM; GI50 [9]: 40.7 µM; GI50 (SN12C renal cancer cells): 46.8 µM; GI50 [10]: 257 nM; GI50 (MALME-3M melanoma cells): 29.5 µM; GI50 [11]: 38.9 µM; GI50 (M-14 melanoma cells): 51.3 µM; GI50 [12]: 229 nM; GI50 (KM12 colon cancer cells): 16.6 µM; GI50 [13]: 55 µM; GI50 [14]: 57.5 µM; GI50 (MCF7 breast cancer cells): 178 nM; GI50 [15]: 5.37 µM; GI50 (SK-MEL-5 melanoma cells): > 10 µM; GI50 [16]: 52.5 µM; GI50 [17]: 49 µM; GI50 (SK-MEL-28 melanoma cells): 39.8 µM; GI50 [18]: 83.2 µM; GI50 [19]: 15.1 µM; GI50 (TK-10 renal cancer cells): 20.9 µM; GI50 [20]: 33.9 µM
